Test results from PubChem BioAssay (NCI).
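Where inhibition never reached the appropriate level, the endpoint shown equals the highest concentration tested. Otherwise, values were interpolated linearly from a five-concentration, 48-hour dose response in 96-well plates. The concentration for 50% growth inhibition is given as GI50. TGI: concentration producing complete growth inhibition.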

How the values were obtained:
Assay in all cases: growth of human tumour cells (NCI), 48 h
A549 NSCLC = system: A549 NSCLC
COLO 205 colon = system: COLO 205 colon
EKVX NSCLC = system: EKVX NSCLC
HCT-116 colon = system: HCT-116 colon
IGROV1 ovarian = system: IGROV1 ovarian
KM12 colon = system: KM12 colon
NCI-H522 lung = system: NCI-H522 lung
SF-295 CNS = system: SF-295 CNS
SK-OV-3 ovarian = system: SK-OV-3 ovarian
SNB-19 CNS = system: SNB-19 CNS

Row | SMILES | GI50 (A549 NSCLC) | TGI (A549 NSCLC) | GI50 (COLO 205 colon) | TGI (COLO 205 colon) | GI50 (EKVX NSCLC) | TGI (EKVX NSCLC) | GI50 (HCT-116 colon) | TGI (HCT-116 colon) | GI50 (IGROV1 ovarian) | TGI (IGROV1 ovarian) | GI50 (KM12 colon) | TGI (KM12 colon) | GI50 (NCI-H522 lung) | TGI (NCI-H522 lung) | GI50 (SF-295 CNS) | TGI (SF-295 CNS) | GI50 (SK-OV-3 ovarian) | TGI (SK-OV-3 ovarian) | GI50 (SNB-19 CNS) | TGI (SNB-19 CNS)
1 | Oc1c(I)cc(I)cc1CN(Cc1ccccn1)Cc1ccccn1 | 0.906 µM | 13.4 µM | 2 µM | 15.1 µM | 0.987 µM | 17.2 µM | 0.666 µM | 12.4 µM | 1.12 µM | 12.6 µM | 0.774 µM | > 42.3 µM | 2.04 µM | 28 µM | 0.658 µM | > 27.1 µM | 0.476 µM | 5.3 µM | 0.86 µM | > 64.2 µM
2 | Cn1sc2ccccc2c1=S |  | 28.8 µM |  | 26.2 µM |  | 27.6 µM |  | 13.3 µM |  | 31.7 µM |  | 25.3 µM |  | 9.36 µM |  | 25.4 µM |  | > 59.8 µM |  | 31.4 µM
3 | CN1CCN(CC(=O)N2c3cccc4cccc(c34)N(C(=O)CN3CCN(C)CC3)C2c2cn(-c3ccccc3)nc2-c2cccc([N+](=O)[O-])c2)CC1 | 3.21 µM | 13.2 µM | 1.84 µM | 3.82 µM | 2.84 µM | 11.5 µM | 1.65 µM | 3.1 µM | 1.73 µM | 3.71 µM | 1.85 µM | 3.43 µM | 1.92 µM | 4.13 µM | 1.9 µM | 3.73 µM | 2.11 µM | 4.6 µM | 2.96 µM | 11.3 µM
4 | Cc1ccc(N2C(=O)C(Cl)=C(Cl)C2=O)cc1 |  | > 100 µM |  | 30.7 µM |  | 39.2 µM |  | 32.9 µM |  | 43.4 µM |  | 45.2 µM |  | 28.6 µM |  | > 100 µM |  | > 100 µM |  | > 100 µM
5 | CCCCCCCCCCCCC(CCCCCCCCCCCC)OP(=O)(O)O |  | > 100 µM |  | > 100 µM |  | > 100 µM |  | > 100 µM |  | > 100 µM |  | > 100 µM |  | > 100 µM |  | > 100 µM |  | > 100 µM |  | > 100 µM
6 | CCOCCOC[C@H]1CCCN(c2ccnc3sc(C(N)=O)c(N)c23)C1 | 77.4 µM | > 100 µM | 59.7 µM | > 100 µM | 27.9 µM | > 100 µM | 14.4 µM | > 100 µM | 35 µM | > 100 µM | 36.6 µM | > 100 µM | 10.3 µM | > 100 µM | 10.4 µM | > 100 µM | 40.3 µM | > 100 µM | > 100 µM | > 100 µM
7 | C=C(CN(C)C)C(=O)c1ccc(Oc2ccccc2)cc1 |  | 42.6 µM |  | 3.35 µM |  | 44 µM |  | 5.32 µM |  | 30.8 µM |  | 29.8 µM |  | 2.72 µM |  | 38.3 µM |  | 47.9 µM |  | 28.8 µM
8 | Cc1c(-c2nnc(-c3cc(Cl)c(Cl)cc3Cl)o2)nnn1-c1ccnc2c(C(F)(F)F)cccc12 | 17.8 µM | 42.9 µM | 17.4 µM | 33.2 µM | 23.7 µM | 73.9 µM | 17.9 µM | 34.8 µM | 27.1 µM | 71.7 µM | 24.6 µM | 67.4 µM | 21.8 µM | 55.8 µM | 27.6 µM | 76.2 µM | 24.5 µM | 61.1 µM | 23.8 µM | 79.9 µM
9 | C[C@@H]1OCC2(CCN(c3cnc(Sc4ccnc(N)c4Cl)c(N)n3)CC2)[C@@H]1N | > 100 µM | > 100 µM | > 100 µM | > 100 µM | 0.573 µM | > 100 µM | > 100 µM | > 100 µM | 0.801 µM | > 100 µM | 5.46 µM | > 100 µM | 7.98 µM | > 100 µM | > 100 µM | > 100 µM | 1.04 µM | > 100 µM | > 100 µM | > 100 µM
10 | Nc1nc(-c2ccc(Cl)cc2)cc(-c2ccccc2)c1-c1nc2ccccc2o1 | 5.9 µM | > 100 µM | 19.1 µM | 35.9 µM | 12.4 µM | 28 µM | 3.21 µM | 9.17 µM | 12.5 µM | 49 µM | 2.65 µM | 8.17 µM | 9.5 µM | 33.9 µM | 15 µM | 35.6 µM | 15.4 µM | 32.4 µM | 18.6 µM | 44.6 µM
11 | COc1cc2c3c(n(CCCN4CCCC(O)C4)c(=O)c2cc1OC)-c1cc2c(cc1C3=O)OCO2 (stereo not given) | 0.642 µM | 1.51 µM | 2.51 µM | 6.33 µM | 1.26 µM | 2.54 µM | 0.0157 µM | 0.925 µM | 0.836 µM | 8.87 µM | 0.333 µM | 1.49 µM | 2.34 µM | 8.91 µM | < 0.005 µM | 2.65 µM | 3.8 µM | 27.2 µM | 0.6 µM | 10.5 µM
12 | C=C1C(=O)O[C@H]2[C@H]1CC/C(COC(=O)NCc1cc(OC)cc(OC)c1)=C\CC[C@@]1(C)O[C@@H]21 | 2.58 µM | 7.47 µM | 1.35 µM | 3.09 µM | 2.06 µM | 6.6 µM | 0.771 µM | 2.06 µM | 2.12 µM | 7.66 µM | 2.8 µM | 11 µM | 0.349 µM | 1.49 µM | 7.78 µM | 22.3 µM | 12.8 µM | 26.1 µM | 5.32 µM | 22.2 µM
13 | COc1ccc(C(c2cc3c(cc2O)OCO3)N2CCOCC2)cc1OC (stereo not given) |  | 51.9 µM |  | 28.8 µM |  | 36.7 µM |  | 22.9 µM |  | 29.6 µM |  | 24.9 µM |  | 15.1 µM |  | 27.2 µM |  | 28.7 µM |  | 30.4 µM
14 | C=CCSSc1ncnc2c1ncn2C1OC(CO)C(O)C1O (stereo not given) | 21.9 µM | > 100 µM | 2.74 µM | 13.1 µM | 69.3 µM | > 100 µM | 2.96 µM | > 45.4 µM | 0.0257 µM | 0.644 µM | 3.24 µM | > 39.9 µM | 1.34 µM | 10.7 µM | 2.58 µM | > 100 µM | 0.501 µM | > 87.2 µM | > 55.7 µM | > 100 µM
15 | Cc1cc(N(CCOS(C)(=O)=O)CCOS(C)(=O)=O)ccc1C=Nc1ccc(-c2csc(-c3ccc(Br)cc3)n2)cc1 |  | 53.1 µM |  | 2.89 µM |  | 37.7 µM |  | > 87.9 µM |  | 22.5 µM |  | 21.6 µM |  | 1.68 µM |  | 50.5 µM |  | 15.6 µM |  | > 88.1 µM
16 | CCOC(=O)NC1CC2CCC1(OC)C=C2C (stereo not given) |  | > 100 µM |  | > 100 µM |  | > 100 µM |  | > 100 µM |  | > 100 µM |  | > 100 µM |  | > 100 µM |  | > 100 µM |  | > 100 µM |  | > 100 µM
17 | CC(=O)[O][Bi]([c]1ccccc1)[c]1ccccc1 | 25.5 µM | 86.7 µM | 2.84 µM | 7.27 µM | 19.4 µM | 34.5 µM | 4.29 µM | 13.7 µM | 2.48 µM | 6.77 µM | 15.8 µM | 30.1 µM | 1.56 µM | 3.11 µM | 17.5 µM | 33.4 µM | 16.6 µM | 30.5 µM | 12.6 µM | 26.8 µM
